In patent US20230365602A1, “COMPOUND FOR USE IN THE TREATMENT OF PROTOZOAL DISEASES AND PROCESS FOR PRODUCTION OF SAID COMPOUND” (QUADREL S.R.L., priority 2020, published 2023):
Where two headings read alike, the source gives them in different places.

Experiments:
[1] = tested on: Salmonella TA98 (frameshift mutations); format: cell-based
Experimental: (§1) The test has been performed in duplicate as separate experiments (Table 9). Two different Salmonella strains were tested; TA98 (frameshift mutations) and TA100 (base pair substitutions, primarily at one of the GC pairs). Values above 15 represent genotoxicity.

[2] = Biodistribution in tissues 72 h after oral gavage; format: in vivo, mice; conditions: for Kp at 72 h / concentration at 72 h: BALB/c (Compound 19), NMRI (miltefosine), mouse; for Kp at 72 h: 72 h after 20 mg/kg oral gavage
Experimental: Blood samples were collected from the tail vein at 0, 0.5, 0.75, 1, 3, 24 and 72 hours into heparinized tubes. Moreover, biodistribution of the molecule, 72h after administration, was determined in several organs of the treated mice, namely brain, liver, spleen, kidney, heart and bone marrow. […] J Chromatogr B, 865: 55-62) by liquid chromatography mass spectrometry (LC-MS/MS).

[3] = target: hERG channel (Homo sapiens, UniProt Q12809); assay: Early toxicity: hERG inhibition
hERG channel, sequence (Q12809 whole entry): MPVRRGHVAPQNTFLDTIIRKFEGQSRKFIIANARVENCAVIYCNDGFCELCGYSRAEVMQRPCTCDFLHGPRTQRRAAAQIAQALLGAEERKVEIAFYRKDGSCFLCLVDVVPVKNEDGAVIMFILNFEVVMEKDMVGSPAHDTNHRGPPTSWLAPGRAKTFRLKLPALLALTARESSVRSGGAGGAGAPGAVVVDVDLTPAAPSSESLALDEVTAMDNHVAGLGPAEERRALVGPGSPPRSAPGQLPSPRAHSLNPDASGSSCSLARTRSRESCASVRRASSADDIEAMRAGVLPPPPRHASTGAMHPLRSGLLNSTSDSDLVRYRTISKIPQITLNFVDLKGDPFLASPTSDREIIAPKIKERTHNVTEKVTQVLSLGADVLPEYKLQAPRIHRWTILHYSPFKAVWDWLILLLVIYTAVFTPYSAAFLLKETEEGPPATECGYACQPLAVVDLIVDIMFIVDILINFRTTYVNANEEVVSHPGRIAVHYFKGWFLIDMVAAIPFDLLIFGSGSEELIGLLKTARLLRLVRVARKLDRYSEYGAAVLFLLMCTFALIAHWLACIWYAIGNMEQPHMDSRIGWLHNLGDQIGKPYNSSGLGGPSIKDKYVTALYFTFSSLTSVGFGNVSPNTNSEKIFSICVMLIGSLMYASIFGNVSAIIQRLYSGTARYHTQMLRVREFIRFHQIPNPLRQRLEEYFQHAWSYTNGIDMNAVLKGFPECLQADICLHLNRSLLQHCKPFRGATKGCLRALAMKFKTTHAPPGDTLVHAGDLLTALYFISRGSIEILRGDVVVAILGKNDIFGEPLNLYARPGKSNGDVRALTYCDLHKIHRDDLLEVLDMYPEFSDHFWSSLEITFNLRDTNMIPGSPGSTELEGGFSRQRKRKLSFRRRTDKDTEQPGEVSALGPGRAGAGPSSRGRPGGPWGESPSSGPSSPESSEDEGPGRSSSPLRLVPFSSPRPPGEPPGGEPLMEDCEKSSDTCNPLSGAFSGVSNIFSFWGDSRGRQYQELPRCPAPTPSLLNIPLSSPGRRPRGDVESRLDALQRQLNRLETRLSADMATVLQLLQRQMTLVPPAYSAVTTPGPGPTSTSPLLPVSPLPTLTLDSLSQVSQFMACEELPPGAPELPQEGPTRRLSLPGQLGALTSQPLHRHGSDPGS

[4] = tested on: L. infantum axenic amastigotes expressing luciferase; assay: In vivo model of infection with L. infantum axenic amastigotes expressing luciferase; conditions: ten consecutive oral treatments with 10 mg/kg, 2 weeks after last treatment
Experimental: FIG. 4 illustrates the in vivo activity of compounds 18 and 19 in a model of infection with L. infantum axenic amastigotes expressing luciferase (10 consecutive treatments with 10 mg/kg of each compound, evaluated by limiting dilution assay 2 weeks after the last treatment).
In vivo activity of compounds 18 and 19 (ten consecutive oral treatments with 10 mg/kg of each compound, followed by a break of 2 weeks after last treatment), was studied in a model of infection with axenic amastigotes expressing luciferase, essentially as described in (Mendes Costa D. et al, J. Sci Rep. 2019 Dec. 12; 9(1):18989; Tavares J. et al., Methods Mol Biol. 2019; 1971:289-301). (FIG. 4).

[5] = tested on: Salmonella TA100 (base pair substitutions); assay: Ames mutagenicity testing, TA100; format: cell-based
Experimental: as §1

[6] = in humans; cited from earlier work

C[N+](C)(C)CCOP(=O)([O-])OCCCCCC1CCCCCCCCCCCCCC1 [Compound 19, 5-cyclopentadecylpentyl (2-(trimethylammonio)ethyl) phosphate]
Ames mutagenicity TA98 (values above 15 represent genotoxicity) ([1]; 3.125 μM): 11.0 ± 8.48 | Ames mutagenicity TA98 (values above 15 represent genotoxicity) ([1]; 6.25 μM): 13.0 ± 2.83 | Ames mutagenicity TA98 (values above 15 represent genotoxicity) ([1]; 12.5 μM): 12.5 ± 4.95 | Ames mutagenicity TA98 (values above 15 represent genotoxicity) ([1]; 25 μM): 6.5 ± 3.53 | Ames mutagenicity TA98 (values above 15 represent genotoxicity) ([1]; 50 μM): 11 ± 2.82 | Ames mutagenicity TA98 (values above 15 represent genotoxicity) ([1]; 100 μM): 11.0 ± 1.41 | mutagenicity, TA98 ([1]; up to 100 μM): does not exhibit mutagenicity | times less concentration in plasma than miltefosine ([2]; 72 hours after 20 mg/kg oral gavage): 6.5 times | Kp at 72 h ([2]; bone marrow, read-out: Tissue/Plasma ratio Bone marrow): 0.09 | concentration at 72 h ([2]; bone marrow, 72 hours after 20 mg/kg oral gavage, read-out: Bone marrow): 200 ng/g | Kp at 72 h ([2]; brain, read-out: Tissue/Plasma ratio Brain): 0.248 | concentration at 72 h ([2]; brain, 72 hours after 20 mg/kg oral gavage, read-out: Brain): 540 ± 610 ng/g | Kp at 72 h ([2]; heart, read-out: Tissue/Plasma ratio Heart): 0.55 | concentration at 72 h ([2]; heart, 72 hours after 20 mg/kg oral gavage, read-out: Heart): 1200 ± 900 ng/g | Kp at 72 h ([2]; kidney, read-out: Tissue/Plasma ratio Kidney): 18.9 | concentration at 72 h ([2]; kidney, 72 hours after 20 mg/kg oral gavage, read-out: Kidney): 41100 ± 15800 ng/g | Kp at 72 h ([2]; liver, read-out: Tissue/Plasma ratio Liver): 5.36 | concentration at 72 h ([2]; liver, 72 hours after 20 mg/kg oral gavage, read-out: Liver): 11600 ± 880 ng/g | concentration at 72 h ([2]; plasma, 72 hours after 20 mg/kg oral gavage, read-out: Plasma): 2170 ± 550 ng/mL | Kp at 72 h ([2]; spleen, read-out: Tissue/Plasma ratio Spleen): 1.06 | concentration at 72 h ([2]; spleen, 72 hours after 20 mg/kg oral gavage, read-out: Spleen): 2310 ± 710 ng/g | Flag for Interference, hERG ([3]; Table 4b): (no) | inhibition at 10 µM ([3]; human): 4.06 ± 2.07% | parasites in the bone marrow [4]: under the detection limit | Ames mutagenicity TA100 (values above 15 represent genotoxicity) ([5]; 3.125 μM): 7.5 ± 0.71 | Ames mutagenicity TA100 (values above 15 represent genotoxicity) ([5]; 6.25 μM): 9.0 ± 0 | Ames mutagenicity TA100 (values above 15 represent genotoxicity) ([5]; 12.5 μM): 14.0 ± 1.41 | Ames mutagenicity TA100 (values above 15 represent genotoxicity) ([5]; 25 μM): 7.0 ± 2.83 | Ames mutagenicity TA100 (values above 15 represent genotoxicity) ([5]; 50 μM): 10.0 ± 0 | Ames mutagenicity TA100 (values above 15 represent genotoxicity) ([5]; 100 μM): 8.5 ± 4.95 | mutagenicity, TA100 ([5]; up to 100 μM): does not exhibit mutagenicity

CCCCCCCCCCCCCCCCOP(=O)([O-])OCC[N+](C)(C)C [Miltefosine, hexadecylphosphocholine, reference compound]
half-life [6]: 100 to 200 h
